Source: ChEMBL document CHEMBL2202996, “Synthesis, evaluation, and radiolabeling of new potent positive allosteric modulators of the metabotropic glutamate receptor 2 as potential tracers for positron emission tomography imaging” (J Med Chem, 2012)

Key:
[1] = Metabolic stability in Wistar rat plasma assessed as intact tracer at 74 MBq, iv measured at 30 mins post administration by gamma counting; assay type: ADME, organism-based; details: read-out: Stability
Hippocampus = assay: Ratio of SUV in hippocampus in iv dosed Wistar at 2 mins post administration by gamma counting to SUV in hippocampus in iv dosed Wistar at 30 mins post administration by gamma counting; assay type: ADME, organism-based; details: rat, in vivo
Cerebrum [2] = assay: Biodistribution in Wistar rat cerebrum at 22 Mbq, iv measured at 2 mins post administration by gamma counting; assay type: ADME, organism-based; details: in vivo
Cerebellum [3] = assay: Ratio of SUV in cerebellum in iv dosed Wistar at 2 mins post administration by gamma counting to SUV in cerebellum in iv dosed Wistar at 30 mins post administration by gamma counting; assay type: ADME, organism-based; details: rat, in vivo
Brain [4] = assay: Ratio of SUV in total brain in iv dosed Wistar at 2 mins post administration by gamma counting to SUV in total brain in iv dosed Wistar at 30 mins post administration by gamma counting; assay type: ADME, organism-based; details: rat, in vivo
Liver = assay: Biodistribution in Wistar rat liver at 22 Mbq, iv measured at 60 mins post administration by gamma counting; assay type: ADME, organism-based; details: in vivo, 1 h
Cortex = assay: Ratio of SUV in cortex in iv dosed Wistar at 2 mins post administration by gamma counting to SUV in cortex in iv dosed Wistar at 30 mins post administration by gamma counting; assay type: ADME, organism-based; details: rat, in vivo
Rattus norvegicus = assay: Biodistribution in Wistar rat urinary system at 22 Mbq, iv measured at 60 mins post administration by gamma counting; assay type: ADME, organism-based, Urine; details: in vivo, 1 h
Cerebellum [5] = assay: Biodistribution in Wistar rat cerebellum at 22 Mbq, iv measured at 2 mins post administration by gamma counting; assay type: ADME, organism-based; details: in vivo
Intestine = assay: Biodistribution in Wistar rat intestine at 22 Mbq, iv measured at 60 mins post administration by gamma counting; assay type: ADME, organism-based; details: in vivo, 1 h
[6] = Metabolic stability in Wistar rat cerebellum assessed as intact tracer at 74 MBq, iv measured at 30 mins post administration by gamma counting; assay type: ADME, organism-based; details: read-out: Stability
[7] = Metabolic stability in Wistar rat cerebrum assessed as intact tracer at 74 MBq, iv measured at 30 mins post administration by gamma counting; assay type: ADME, organism-based; details: read-out: Stability
Cerebrum [8] = assay: Ratio of SUV in cerebrum in iv dosed Wistar at 2 mins post administration by gamma counting to SUV in cerebrum in iv dosed Wistar at 30 mins post administration by gamma counting; assay type: ADME, organism-based; details: rat, in vivo
Brain [9] = assay: Biodistribution in Wistar rat brain at 22 Mbq, iv measured at 2 mins post administration by gamma counting; assay type: ADME, organism-based; details: in vivo
Striatum = assay: Ratio of SUV in striatum in iv dosed Wistar at 2 mins post administration by gamma counting to SUV in striatum in iv dosed Wistar at 30 mins post administration by gamma counting; assay type: ADME, organism-based; details: rat, in vivo
[10] = target: T1, Metabotropic glutamate receptor 2 (Homo sapiens, UniProt Q14416); assay: Agonist activity at human mGLuR2 expressed in CHO cell membrane assessed as […] after 30 mins by scintillation counting relative to control; assay type: functional, cell membranes
Target sequence in this assay (Q14416 19-872 limits assumed): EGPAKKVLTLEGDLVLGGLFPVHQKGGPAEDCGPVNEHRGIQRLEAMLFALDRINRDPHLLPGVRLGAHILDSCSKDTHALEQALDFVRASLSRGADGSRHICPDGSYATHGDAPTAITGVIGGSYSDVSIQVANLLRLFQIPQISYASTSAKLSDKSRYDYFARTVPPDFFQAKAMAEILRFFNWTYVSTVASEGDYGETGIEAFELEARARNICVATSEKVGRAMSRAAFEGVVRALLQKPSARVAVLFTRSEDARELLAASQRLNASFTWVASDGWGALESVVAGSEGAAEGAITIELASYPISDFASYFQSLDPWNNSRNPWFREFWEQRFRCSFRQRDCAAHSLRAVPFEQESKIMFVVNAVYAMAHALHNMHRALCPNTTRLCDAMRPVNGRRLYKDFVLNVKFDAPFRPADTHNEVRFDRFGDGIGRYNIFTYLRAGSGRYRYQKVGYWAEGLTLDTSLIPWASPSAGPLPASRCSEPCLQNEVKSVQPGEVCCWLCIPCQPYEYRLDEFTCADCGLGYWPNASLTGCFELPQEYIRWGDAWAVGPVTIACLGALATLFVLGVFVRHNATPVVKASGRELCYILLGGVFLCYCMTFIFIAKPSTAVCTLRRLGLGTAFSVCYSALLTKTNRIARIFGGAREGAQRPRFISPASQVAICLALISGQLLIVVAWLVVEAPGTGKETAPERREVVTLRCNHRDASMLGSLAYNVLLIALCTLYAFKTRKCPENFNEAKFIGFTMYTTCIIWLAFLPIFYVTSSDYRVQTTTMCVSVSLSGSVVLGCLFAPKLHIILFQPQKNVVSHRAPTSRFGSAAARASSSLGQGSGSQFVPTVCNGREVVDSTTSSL

[11] = target: T1, Metabotropic glutamate receptor 2; assay: Agonist activity at human mGLuR2 expressed in CHO cell membrane assessed as […] after 30 mins by scintillation counting; assay type: functional, cell membranes; details: read-out: EC50
Target sequence in this assay (Q14416 whole entry): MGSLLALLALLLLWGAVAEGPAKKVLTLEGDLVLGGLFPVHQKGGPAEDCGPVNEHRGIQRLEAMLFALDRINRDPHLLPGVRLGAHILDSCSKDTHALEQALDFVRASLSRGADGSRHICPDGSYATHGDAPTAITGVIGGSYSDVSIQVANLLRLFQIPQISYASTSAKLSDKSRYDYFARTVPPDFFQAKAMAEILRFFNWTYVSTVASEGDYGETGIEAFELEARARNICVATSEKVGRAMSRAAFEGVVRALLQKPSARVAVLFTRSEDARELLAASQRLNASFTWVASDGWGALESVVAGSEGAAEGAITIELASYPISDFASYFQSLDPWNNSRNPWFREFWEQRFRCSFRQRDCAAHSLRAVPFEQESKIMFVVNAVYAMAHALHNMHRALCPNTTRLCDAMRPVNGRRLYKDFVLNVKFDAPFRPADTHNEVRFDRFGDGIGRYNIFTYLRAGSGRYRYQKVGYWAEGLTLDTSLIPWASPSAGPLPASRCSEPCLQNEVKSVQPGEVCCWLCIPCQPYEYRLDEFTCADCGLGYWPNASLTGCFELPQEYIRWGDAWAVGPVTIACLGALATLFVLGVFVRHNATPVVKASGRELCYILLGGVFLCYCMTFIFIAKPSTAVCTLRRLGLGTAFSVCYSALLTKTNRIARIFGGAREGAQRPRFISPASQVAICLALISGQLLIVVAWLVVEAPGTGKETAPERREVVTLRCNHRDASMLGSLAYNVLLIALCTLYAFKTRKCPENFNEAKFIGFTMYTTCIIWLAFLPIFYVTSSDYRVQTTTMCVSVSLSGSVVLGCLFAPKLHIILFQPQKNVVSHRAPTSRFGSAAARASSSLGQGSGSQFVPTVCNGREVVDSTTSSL

Liver microsomes [12] = assay: Drug metabolism in rat liver microsomes assessed as O-methylated compound derivative; assay type: ADME, Microsome
[13] = Fraction unbound in rat plasma; assay type: ADME, cell-free
Liver microsomes [14] = assay: Drug metabolism in rat liver microsomes assessed as M+O oxidative metabolite; assay type: ADME, Microsome
Liver microsomes [15] = assay: Drug metabolism in human liver microsomes assessed as O-methylated compound derivative; assay type: ADME, Microsome
[16] = Fraction unbound in human plasma; assay type: ADME, cell-free
Liver microsomes [17] = assay: Drug metabolism in human liver microsomes assessed as M+O oxidative metabolite; assay type: ADME, Microsome
HEK293 [18] = assay: Selectivity ratio for human mGluR7 expressed in HEK293 cells to human mGluR2 expressed in CHO cell membranes; assay type: cell-based
HEK293 [19] = assay: Selectivity ratio for human mGluR8 expressed in HEK293 cells to human mGluR2 expressed in CHO cell membranes; assay type: cell-based
[20] = target: T1, Metabotropic glutamate receptor 2; assay: Displacement of [3H]JNJ-40068782 from human mGLuR2 expressed in CHO cell membrane after 60 mins by liquid scintillation counting; assay type: cell membranes
Target sequence in this assay (Q14416 whole entry): as above

HEK293 [21] = assay: Selectivity ratio for human mGluR5 expressed in HEK293 cells to human mGluR2 expressed in CHO cell membranes; assay type: cell-based
HEK293 [22] = assay: Selectivity ratio for human mGluR3 expressed in HEK293 cells to human mGluR2 expressed in CHO cell membranes; assay type: cell-based
CHO [23] = assay: Selectivity ratio for human mGluR4 to human mGluR2 expressed in CHO cell membranes; assay type: cell-based
CHO [24] = assay: Selectivity ratio for rat mGluR6 to human mGluR2 expressed in CHO cell membranes; assay type: cell-based
HEK293 [25] = assay: Selectivity ratio for human mGluR1 expressed in HEK293 cells to human mGluR2 expressed in CHO cell membranes; assay type: cell-based

Row | SMILES | remaining at 0.5 h [1] | Ratio (Hippocampus) | Drug uptake (Cerebrum [2]) | Ratio (Cerebellum [3]) | Ratio (Brain [4]) | Drug uptake (Liver) | Ratio (Cortex) | Drug uptake (Rattus norvegicus) | Drug uptake (Cerebellum [5]) | Drug uptake (Intestine) | Ratio (Cerebrum [8]) | Drug uptake (Brain [9]) | Ratio (Striatum) | Emax [10] | Drug metabolism (Liver microsomes [12]) | fraction unbound [13] | Drug metabolism (Liver microsomes [14]) | Drug metabolism (Liver microsomes [15]) | fraction unbound [16] | Drug metabolism (Liver microsomes [17]) | further results
1 | [11CH3]Oc1ccc(F)c(F)c1C1CCN(c2ccn3c(CC4CC4)nnc3c2Cl)CC1 | 45.5% | 1.19 | 0.46 %ID | 0.95 | 0.93 | Active | 0.84 | Active | 0.15 %ID | Active | 0.84 | 0.64 %ID | 0.99 |  |  |  |  |  |  |  | remaining at 0.5 h [6]: 96.4%; remaining at 0.5 h [7]: 93.1%
2 | [11CH3]Oc1cc(F)cc(F)c1C1CCN(c2ccn3c(CC4CC4)nnc3c2Cl)CC1 | 30.8% | 0.71 | 0.53 %ID | 0.77 | 0.88 | Active | 0.66 | Active | 0.18 %ID | Active | 0.72 | 0.75 %ID | 0.67 |  |  |  |  |  |  |  | remaining at 0.5 h [6]: 95.5%; remaining at 0.5 h [7]: 92.9%
3 | [11CH3]Oc1ccc(F)cc1C1CCN(c2ccn3c(CC4CC4)nnc3c2Cl)CC1 | 41% | 0.66 | 0.45 %ID | 0.63 | 0.79 | Active | 0.88 | Active | 0.1 %ID | Active | 0.83 | 0.58 %ID | 0.63 |  |  |  |  |  |  |  | remaining at 0.5 h [6]: 92.7%; remaining at 0.5 h [7]: 92.4%
4 | COc1c(F)cccc1C1CCN(c2ccn3c(CC4CC4)nnc3c2C(F)(F)F)CC1 |  |  |  |  |  |  |  |  |  |  |  |  |  | 528% | Active | < 0.01 | Active | Active | < 0.01 | Active | EC50 [11]: 11 nM
5 | COc1ccc(F)cc1C1CCN(c2ccn3c(CC(F)(F)F)nnc3c2Cl)CC1 |  |  |  |  |  |  |  |  |  |  |  |  |  | 340% | Active | < 0.01 | Active | Active | < 0.01 | Active | 
6 | COc1cc(F)cc(F)c1C1CCN(c2ccn3c(CC4CC4)nnc3c2Cl)CC1 |  |  |  |  |  |  |  |  |  |  |  |  |  | 256% | Active | < 0.01 | Active | Active | < 0.01 | Active | Selectivity ratio (HEK293 [18]): > 350; Selectivity ratio (HEK293 [19]): > 350; IC50 [20]: 5.6 nM; Selectivity ratio (HEK293 [21]): > 350; Selectivity ratio (HEK293 [22]): > 350; Selectivity ratio (CHO [23]): > 350; Selectivity ratio (CHO [24]): > 350; Selectivity ratio (HEK293 [25]): > 350
7 | COc1ccccc1C1CCN(c2ccn3c(CC4CC4)nnc3c2Cl)CC1 |  |  |  |  |  |  |  |  |  |  |  |  |  | 345% | Active | < 0.01 | Active | Active | < 0.01 | Active | 
8 | [11CH3]Oc1c(F)ccc(F)c1C1CCN(c2ccn3c(CC4CC4)nnc3c2C(F)(F)F)CC1 |  | 1.01 | 0.54 %ID | 0.99 | 1.08 |  | 1.04 |  | 0.17 %ID |  | 0.98 | 0.75 %ID | 0.86 |  |  |  |  |  |  |  | 
